PubChem BioAssay AID1259408 (Genetic Toxicology Data Bank (GENE-TOX), 2018)
Activity calls are given as the source filed them. How the calls were made is not given here.

Test system: GENE-TOX genotoxicity assays, various organisms and cells
Test: GENE-TOX mutagenicity studies
Details: for call: Assay Type: In vivo carcinogenicity studies
[1] = Species/Cell Type: Drosophila melanogaster, Assay Type: Sex-linked recessive lethal gene mutation, Assay Code: SRLT, Evaluation Type: Evaluation A (Pre-1980)
[2] = Species/Cell Type: Escherichia coli polA (W3119 vs P3478), Assay Type: Rec-assay, DNA effects (bacterial DNA repair), Assay Code: RE1-, Evaluation Type: Evaluation A (Pre-1980)
[3] = Species/Cell Type: Mouse, Sex: Male, Assay Type: Sperm morphology, Assay Code: SPI-, Evaluation Type: Evaluation A (Pre-1980)
[4] = Species/Cell Type: Nonhuman, Assay Code: CCG+, Evaluation Type: Evaluation A (Pre-1980)
[5] = Species/Cell Type: Saccharomyces cerevisiae, Assay Type: Mitotic recombination or gene conversion, Assay Code: YEC+, Evaluation Type: Evaluation A (Pre-1980)
[6] = Species/Cell Type: Salmonella typhimurium (one or more of the five standard strains: TA98, TA100, TA1535, TA1537, and TA1538), Assay Type: Histidine reverse gene mutation, Ames assay, Assay Code: SAL+*, Activation: With metabolic activation, Evaluation Type: Evaluation A (Pre-1980)
[7] = Species/Cell Type: Salmonella typhimurium, Assay Type: Forward and reverse gene mutation, host-mediated assay, Assay Code: HMA+, Evaluation Type: Evaluation A (Pre-1980)
[8] = Species/Cell Type: Syrian hamster embryo (SHE) cells, Assay Type: Cell transformation, clonal assay, Assay Code: CTC+, Evaluation Type: Evaluation A (Pre-1980)
[9] = Species/Cell Type: Hordeum vulgare (barley), Assay Type: Chromosome aberrations, Assay Code: HOC+, Evaluation Type: Evaluation A (Pre-1980)
[10] = Species/Cell Type: Salmonella typhimurium (one or more of the five standard strains: TA98, TA100, TA1535, TA1537, and TA1538), Assay Type: Histidine reverse gene mutation, Ames assay, Assay Code: SAL+, Evaluation Type: Evaluation A (Pre-1980)

## Nc1ccc2ccccc2c1
Species/Cell Type: Chinese hamster ovary (CHO) cells, Assay Type: Forward gene mutation at the HPRT locus, Assay Code: CHO+, Evaluation Type: Evaluation B (Post-1980)
  mutagenic call: active; positive
[1]
  mutagenic call: no conclusion
Species/Cell Type: Escherichia coli polA (W3110 vs P3478), Assay Type: Rec-assay, DNA effects (bacterial DNA repair), Assay Code: RE2+, Evaluation Type: Evaluation A (Pre-1980)
  mutagenic call: active; positive
[2]
  mutagenic call: inactive; negative
Species/Cell Type: Escherichia coli polA (W3119 vs P3478), Assay Type: Rec-assay, DNA effects (bacterial DNA repair), Assay Code: RE1T, Evaluation Type: Evaluation A (Pre-1980)
  mutagenic call: no conclusion
Species/Cell Type: Fischer rat embryo (RLV/1706) cells, Assay Type: Cell transformation, viral enhanced, Assay Code: CTR+, Evaluation Type: Evaluation A (Pre-1980)
  mutagenic call: active; positive
Species/Cell Type: Mammalian polychromatic erythrocytes, Assay Type: Micronucleus test, chromosome aberrations, Assay Code: MNT+, Evaluation Type: Evaluation A (Pre-1980)
  mutagenic call: active; positive
Species/Cell Type: Mouse (BALB/c-3T3) cells, Assay Type: Cell transformation, Assay Code: CTB-, Evaluation Type: Evaluation A (Pre-1980)
  mutagenic call: inactive; negative
Species/Cell Type: Mouse embryo (AKR/ME) cells, Assay Type: Cell transformation, Assay Code: CTK+, Evaluation Type: Evaluation A (Pre-1980)
  mutagenic call: active; positive
[3]
  mutagenic call: inactive; negative
Species/Cell Type: Neurospora crassa, Assay Type: Forward gene mutation, Assay Code: NEF+, Evaluation Type: Evaluation A (Pre-1980)
  mutagenic call: active; positive
[4]
  call: active; positive
Species/Cell Type: Nonhuman, Assay Type: Sister-chromatid exchange (SCE) in vitro, Assay Code: SC2+D*, Activation: With metabolic activation, Dose Response: With dose response, Evaluation Type: Evaluation B (Post-1980)
  mutagenic call: active; positive
Species/Cell Type: Nonhuman, Assay Type: Sister-chromatid exchange (SCE) in vivo, Assay Code: SC3+, Evaluation Type: Evaluation B (Post-1980)
  mutagenic call: active; positive
Species/Cell Type: Saccharomyces cerevisiae, Assay Type: Forward gene mutation, Assay Code: YEF+*, Activation: With metabolic activation, Evaluation Type: Evaluation A (Pre-1980)
  mutagenic call: active; positive
[5]
  mutagenic call: active; positive
Species/Cell Type: Saccharomyces cerevisiae, Assay Type: Mitotic recombination or gene conversion, Assay Code: YEH+*, Activation: With metabolic activation, Evaluation Type: Evaluation A (Pre-1980)
  mutagenic call: active; positive
Species/Cell Type: Saccharomyces cerevisiae, Assay Type: Mitotic recombination or gene conversion, Assay Code: YEH-, Evaluation Type: Evaluation A (Pre-1980)
  mutagenic call: inactive; negative
[6]
  mutagenic call: active; positive
[7]
  mutagenic call: active; positive
Species/Cell Type: Syrian hamster embryo (SA7/SHE) cells, Assay Type: Cell transformation, viral enhanced, Assay Code: CT7+, Evaluation Type: Evaluation A (Pre-1980)
  mutagenic call: active; positive
[8]
  mutagenic call: active; positive
Species/Cell Type: Tradescantia species, Assay Type: Gene mutation, Assay Code: TRM+D, Dose Response: With dose response, Evaluation Type: Evaluation A (Pre-1980)
  mutagenic call: active; positive

## C[C@H](CC[C@H](C)OS(C)(=O)=O)OS(C)(=O)=O
Species/Cell Type: Rodents, Sex: Male, Assay Type: Dominant lethal test, Assay Code: DLT+, Evaluation Type: Evaluation A (Pre-1980)
  mutagenic call: active; positive

## C[C@]12CC[C@H]3[C@@H](CCC4=CC(=O)CC[C@@]43C)[C@@H]1CC[C@@H]2O
Species/Cell Type: Human, Sex: Male, Assay Type: Sperm morphology, Assay Code: SPH+, Evaluation Type: Evaluation A (Pre-1980)
  mutagenic call: active; positive
[3]
  mutagenic call: inactive; negative
[4]
  call: active; positive

## NC=O
Species/Cell Type: Fischer rat embryo (RLV/1706) cells, Assay Type: Cell transformation, viral enhanced, Assay Code: CTR-, Evaluation Type: Evaluation A (Pre-1980)
  mutagenic call: inactive; negative
[9]
  mutagenic call: active; positive

## C[n+]1c(-c2ccc(N)cc2)c2cc(N)ccc2c2ccc(N)cc21
[10]
  mutagenic call: active; positive

## c1cc2c(cc1CC1CO1)OCO2 (stereo not given)
[10]
  mutagenic call: active; positive

## CC(C)C[C@H](NP(=O)(O)O[C@@H]1O[C@@H](C)[C@H](O)[C@@H](O)[C@H]1O)C(=O)N[C@@H](Cc1c[nH]c2ccccc12)C(=O)O
Species/Cell Type: Human, Assay Type: Sister-chromatid exchange (SCE) in vitro, Assay Code: SC1T, Evaluation Type: Evaluation B (Post-1980)
  mutagenic call: no conclusion

## O=CC1CO1 (stereo not given)
Species/Cell Type: Escherichia coli polA (W3119 vs P3478), Assay Type: Rec-assay, DNA effects (bacterial DNA repair), Assay Code: RE1+, Evaluation Type: Evaluation A (Pre-1980)
  mutagenic call: active; positive
Species/Cell Type: Human diploid fibroblasts, Assay Type: Unscheduled DNA synthesis (UDS) in vitro, DNA effects, Assay Code: UDH+, Evaluation Type: Evaluation A (Pre-1980)
  mutagenic call: active; positive
Species/Cell Type: Mouse (BALB/c-3T3) cells, Assay Type: Cell transformation, Assay Code: CTB+D, Dose Response: With dose response, Evaluation Type: Evaluation A (Pre-1980)
  mutagenic call: active; positive
[4]
  call: active; positive
Species/Cell Type: Saccharomyces cerevisiae, Assay Type: Mitotic recombination or gene conversion, Assay Code: YEH+, Evaluation Type: Evaluation A (Pre-1980)
  mutagenic call: active; positive
[10]
  mutagenic call: active; positive
[7]
  mutagenic call: active; positive
[8]
  mutagenic call: active; positive

## O=C(O)c1ccc([N+](=O)[O-])cc1
Species/Cell Type: Salmonella typhimurium, Assay Type: Forward and reverse gene mutation, host-mediated assay, Assay Code: HMA-, Evaluation Type: Evaluation A (Pre-1980)
  mutagenic call: inactive; negative

## CN[C@@H]1[C@H](O[C@H]2[C@H](O[C@H]3[C@H](O)[C@@H](O)[C@H](N=C(N)N)[C@@H](O)[C@@H]3N=C(N)N)O[C@@H](C)[C@]2(O)C=O)O[C@@H](CO)[C@H](O)[C@H]1O
Species/Cell Type: Bacillus subtilis (H17 vs M45T), Assay Type: Rec-assay, spot test, DNA effects (bacterial DNA repair), Assay Code: REXT, Evaluation Type: Evaluation A (Pre-1980)
  mutagenic call: no conclusion
[1]
  mutagenic call: no conclusion
[2]
  mutagenic call: inactive; negative
Species/Cell Type: Vicia faba, Assay Type: Chromosome aberrations, Assay Code: VIC+, Evaluation Type: Evaluation A (Pre-1980)
  mutagenic call: active; positive

## CS(=O)(=O)OC[C@H](O)[C@@H]1CO1
Species/Cell Type: Allium cepa, Assay Type: Chromosome aberrations, Assay Code: ALC+D, Dose Response: With dose response, Evaluation Type: Evaluation A (Pre-1980)
  mutagenic call: active; positive

## O=NN1CCC(Cl)C(Cl)C1 (stereo not given)
Species/Cell Type: Drosophila melanogaster, Assay Type: Aneuploidy, partial sex chromosome loss, chromosome aberrations, Assay Code: DAPT, Evaluation Type: Evaluation A (Pre-1980)
  mutagenic call: no conclusion
Species/Cell Type: Drosophila melanogaster, Assay Type: Aneuploidy, whole sex chromosome loss, chromosome aberrations, Assay Code: DACT, Evaluation Type: Evaluation A (Pre-1980)
  mutagenic call: no conclusion
Species/Cell Type: Drosophila melanogaster, Assay Type: Sex-linked recessive lethal gene mutation, Assay Code: SRL+, Evaluation Type: Evaluation A (Pre-1980)
  mutagenic call: active; positive

## CCOP(=S)(OCC)Oc1ccc(Cl)cc1Cl
Species/Cell Type: Human, Assay Type: Sister-chromatid exchange (SCE) in vitro, Assay Code: SC1+D, Dose Response: With dose response, Evaluation Type: Evaluation B (Post-1980)
  mutagenic call: active; positive

## O=c1cccc2cc(O)c(O)c(O)c2c1O
Species/Cell Type: Allium cepa, Assay Type: Chromosome aberrations, Assay Code: ALC-, Evaluation Type: Evaluation A (Pre-1980)
  mutagenic call: inactive; negative

## c1ccc(-c2ccc(C3CO3)cc2)cc1 (stereo not given)
[10]
  mutagenic call: active; positive

## CC1=CCc2c1c(C)c(C)c1c2ccc2ccccc21
[6]
  mutagenic call: active; positive

## O=[N+]([O-])c1ccc(N=Nc2c(O)ccc3ccccc23)c(Cl)c1
[6]
  mutagenic call: active; positive

## O=C(O)CNCP(=O)(O)O
Species/Cell Type: Human lymphocytes, Assay Type: Sister-chromatid exchange (SCE) in vitro, Assay Code: SCL+, Evaluation Type: Evaluation B (Post-1980)
  mutagenic call: active; positive
Species/Cell Type: Human, Assay Type: Sister-chromatid exchange (SCE) in vitro, Assay Code: SC1+, Evaluation Type: Evaluation B (Post-1980)
  mutagenic call: active; positive

## CC1=C2CCc3c2c(cc2c3ccc3ccccc32)C(O)C1O (stereo not given)
Species/Cell Type: Chinese hamster lung (V79) cells, Assay Type: Forward gene mutation at the HPRT or ouabain locus, Assay Code: V79-, Evaluation Type: Evaluation A (Pre-1980)
  mutagenic call: inactive; negative
Species/Cell Type: Nonhuman, Assay Code: CCG+L, Evaluation Type: Evaluation A (Pre-1980)
  call: active; positive

## C[n+]1ccc(-c2cc[n+](C)cc2)cc1
Species/Cell Type: Allium cepa, Assay Type: Chromosome aberrations, Assay Code: ALC+, Evaluation Type: Evaluation A (Pre-1980)
  mutagenic call: active; positive
[9]
  mutagenic call: active; positive
Species/Cell Type: Nonhuman, Assay Type: Sister-chromatid exchange (SCE) in vitro, Assay Code: SC2+D, Dose Response: With dose response, Evaluation Type: Evaluation B (Post-1980)
  mutagenic call: active; positive
Species/Cell Type: Rodents, Sex: Male, Assay Type: Dominant lethal test, Assay Code: DLT-, Evaluation Type: Evaluation A (Pre-1980)
  mutagenic call: inactive; negative
[5]
  mutagenic call: active; positive
Species/Cell Type: Vicia faba, Assay Type: Chromosome aberrations, Assay Code: VIC-, Evaluation Type: Evaluation A (Pre-1980)
  mutagenic call: inactive; negative

## COC(=O)c1ccc(N=Nc2ccc(N(C)OC(C)=O)cc2)cc1
[10]
  mutagenic call: active; positive
